Several values for one entry are separate records, joined by “and”; a condition that tells them apart may be missing. Equal entries are not always repeated. Where two headings read alike, the source gives them in different places.
Key:
[1] = biological target: T1, human recombinant adrenergic α2B receptor (Homo sapiens, UniProt P18089); test: Radioligand binding, adrenergic α2B ([3H]Rauwolscine); details: for Percentage inhibition of ligand binding, Adrenergic α2B: 0.03 μM compound; for Percentage inhibition of ligand binding, Adrenergic α2B (0.03 μM): compound at 0.03 μM; for Percentage inhibition of ligand binding, Adrenergic α2B (0.03 μM) / inhibition at 0.03 µM: [3H]Rauwolscine, repeat datapoints each shown; for inhibition at 0.03 µM: read-out: Percentage inhibition of ligand binding, Adrenergic α2B (0.03 μM), compound at 0.03 μM
T1 construct: expressed in transfected cells; host or cells: CHO-K1
T1 sequence (P18089 1-450): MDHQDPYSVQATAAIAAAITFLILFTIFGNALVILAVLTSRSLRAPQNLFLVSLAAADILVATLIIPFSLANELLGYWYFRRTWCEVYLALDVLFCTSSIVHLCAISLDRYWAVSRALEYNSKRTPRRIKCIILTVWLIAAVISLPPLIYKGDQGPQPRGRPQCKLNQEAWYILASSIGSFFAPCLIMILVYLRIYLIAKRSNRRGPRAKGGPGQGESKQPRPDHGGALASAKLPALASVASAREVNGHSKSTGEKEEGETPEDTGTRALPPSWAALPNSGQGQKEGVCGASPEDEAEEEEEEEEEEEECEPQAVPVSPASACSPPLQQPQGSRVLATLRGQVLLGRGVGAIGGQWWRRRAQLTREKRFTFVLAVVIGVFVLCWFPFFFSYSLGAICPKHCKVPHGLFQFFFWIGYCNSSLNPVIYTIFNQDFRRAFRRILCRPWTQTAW
Outline: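 Membranes from CHO-K1 cells expressing human recombinant α2B, in 50 mM Tris-HCl pH 7.4, 12.5 mM MgCl2, 1 mM EDTA, 0.2% BSA, incubated with compound and 2.5 nM [3H]Rauwolscine, 60 min, 25 °C.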

[2] = biological target: T2, human recombinant adrenergic α2A receptor (Homo sapiens, UniProt P08913); test: Radioligand binding, adrenergic α2A ([3H]MK-912); details: for Percentage inhibition of ligand binding, Adrenergic α2A / Percentage inhibition of ligand binding, Adrenergic α2A (0.1 μM): 0.1 µM; for Percentage inhibition of ligand binding, Adrenergic α2A (0.1 μM): compound at 0.1 μM
T2 construct: expressed in transfected cells; host or cells: insect Sf9 cells
T2 sequence (P08913 1-465): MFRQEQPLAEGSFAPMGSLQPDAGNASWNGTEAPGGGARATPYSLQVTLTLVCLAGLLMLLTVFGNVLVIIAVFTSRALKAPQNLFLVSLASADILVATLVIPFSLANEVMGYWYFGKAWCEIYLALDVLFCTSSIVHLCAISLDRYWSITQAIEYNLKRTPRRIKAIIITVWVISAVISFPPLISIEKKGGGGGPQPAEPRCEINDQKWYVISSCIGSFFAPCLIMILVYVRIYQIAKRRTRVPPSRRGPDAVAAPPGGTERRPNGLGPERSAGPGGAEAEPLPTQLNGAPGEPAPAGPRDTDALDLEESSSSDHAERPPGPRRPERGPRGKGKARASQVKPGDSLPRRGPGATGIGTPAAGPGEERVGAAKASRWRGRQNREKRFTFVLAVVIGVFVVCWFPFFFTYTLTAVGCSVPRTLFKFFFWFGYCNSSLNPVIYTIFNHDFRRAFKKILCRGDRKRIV
Outline: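 Sf9 membranes, 1 nM [3H]MK-912, 60 min, 25 °C, Tris-HCl pH 7.4/MgCl2/EDTA buffer. NSB: 10 μM WB-4101. Filtration, counting; % inhibition of specific binding.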

[3] = biological target: T3, rat adrenergic α1B receptor (Rattus norvegicus, UniProt P15823); test: Radioligand binding, adrenergic α1B ([3H]Prazosin); details: for Percentage inhibition of ligand binding, Adrenergic α1B: 0.1 μM compound; for Percentage inhibition of ligand binding, Adrenergic α1B (0.1 μM): compound at 0.1 μM; for inhibition at 0.1 µM: read-out: Percentage inhibition of ligand binding, Adrenergic α1B (0.1 μM), compound at 0.1 μM
T3 construct: rat adrenergic α1B receptor obtained from Wistar Rat liver; from tissue; host or cells: Wistar rat liver
T3 sequence (P15823 1-515): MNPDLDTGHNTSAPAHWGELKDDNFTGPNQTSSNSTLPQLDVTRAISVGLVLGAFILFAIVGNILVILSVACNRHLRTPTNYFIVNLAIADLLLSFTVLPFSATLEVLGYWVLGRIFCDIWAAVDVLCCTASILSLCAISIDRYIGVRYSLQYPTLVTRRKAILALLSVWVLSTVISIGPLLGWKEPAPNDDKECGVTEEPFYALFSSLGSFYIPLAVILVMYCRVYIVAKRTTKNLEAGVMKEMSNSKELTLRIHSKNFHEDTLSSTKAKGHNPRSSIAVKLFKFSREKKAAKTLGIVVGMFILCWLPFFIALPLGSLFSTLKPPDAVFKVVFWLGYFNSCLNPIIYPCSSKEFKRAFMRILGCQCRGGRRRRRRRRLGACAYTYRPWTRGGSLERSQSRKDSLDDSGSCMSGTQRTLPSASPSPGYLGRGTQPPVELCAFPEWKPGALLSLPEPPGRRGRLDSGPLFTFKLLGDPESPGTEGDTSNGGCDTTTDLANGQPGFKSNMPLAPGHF
Outline: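 Rat α1B receptor from Wistar rat liver was incubated with 0.25 nM [3H]prazosin for 60 min at 25 °C in 50 mM Tris-HCl, pH 7.4, 0.5 mM EDTA. Non-specific binding was defined with 10 μM phentolamine. Bound radioligand was measured by filtration and counting, reported as percent inhibition of specific binding.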

[4] = [3H]MK-912, repeat datapoints each shown
[5] = [3H]Prazosin, repeat datapoints each shown, 0.1 µM
[6] = [3H]Prazosin, repeat datapoints each shown

SMILES	Percentage inhibition of ligand binding, Adrenergic α2B (0.03 μM) ([1]; 0.03 µM)	Percentage inhibition of ligand binding, Adrenergic α2A (0.1 μM) [2, 4]	Percentage inhibition of ligand binding, Adrenergic α1B (0.1 μM) [3, 5]	further results
Cc1ccc2c(c1)c1c(n2C(C)C(O)c2ccccc2)CCN(C)C1 (single isomer, unassigned) [II-95b, 2-(2,8-dimethyl-1,2,3,4-tetrahydro-pyrido[4,3-b]indol-5-yl)1-phenyl-propan-1-ol]	–	–	–	Percentage inhibition of ligand binding, Adrenergic α2B ([1]; 0.03 µM): 12%; Percentage inhibition of ligand binding, Adrenergic α2A ([2]; 0.1 μM compound): −1%; Percentage inhibition of ligand binding, Adrenergic α1B ([3]; 0.1 µM): −1%
Cc1cnc2c(c1)c1c(n2CC(C)(O)c2cccnc2)CCN(C)C1 (single isomer, unassigned) [II-99a]	–	–	–	Percentage inhibition of ligand binding, Adrenergic α2B ([1]; 0.03 µM): 49%; inhibition at 0.1 µM ([2]; 0.1 μM compound, read-out: Percentage inhibition of ligand binding, Adrenergic α2A): 24%; Percentage inhibition of ligand binding, Adrenergic α1B ([3]; 0.1 µM): 12%
Cc1cnc2c(c1)c1c(n2CC(C)(O)c2cccnc2)CCN(C)C1 (single isomer, unassigned) [II-99b]	–	–	–	Percentage inhibition of ligand binding, Adrenergic α2B ([1]; 0.03 µM): 7%; Percentage inhibition of ligand binding, Adrenergic α2A ([2]; 0.1 μM compound): 16%; Percentage inhibition of ligand binding, Adrenergic α1B ([3]; 0.1 µM): 5%
Cc1cnc2c(c1)c1c(n2CC(O)c2ccc(C)nc2)CCN(C)C1 (single isomer, unassigned) [II-100b]	–	–	–	Percentage inhibition of ligand binding, Adrenergic α2B ([1]; 0.03 µM): 1%; Percentage inhibition of ligand binding, Adrenergic α2A ([2]; 0.1 μM compound): 4%; Percentage inhibition of ligand binding, Adrenergic α1B [3]: 24%
Cc1cnc2c(c1)c1c(n2CC(C)(O)c2ccc(C(F)(F)F)nc2)CCN(C)C1 (single isomer, unassigned) [II-108a]	27%	−2%	13%	–
Cc1cnc2c(c1)c1c(n2CC(C)(O)c2ccc(C(F)(F)F)nc2)CCN(C)C1 (single isomer, unassigned) [II-108b]	11%	−6%	−2%	–
CN1CCc2c(c3cc(Cl)cnc3n2CC(C)(O)c2ccc(C(F)(F)F)nc2)C1 (single isomer, unassigned) [II-109a]	41%	2%	27%	–
CN1CCc2c(c3cc(Cl)cnc3n2CC(C)(O)c2ccc(C(F)(F)F)nc2)C1 (single isomer, unassigned) [II-109b]	2%	−10%	5%	–
Cc1cnc2c(c1)c1c(n2CC(O)c2ccc(C#N)nc2)CCN(C)C1 (single isomer, unassigned) [II-114a, 5-[2-(3,6-dimethyl-5,6,7,8-tetrahydro-1,6,9-triaza-fluoren-9-yl)-1-hydroxy-ethyl]-pyridine-2-carbonitrile]	–	12%	45%	inhibition at 0.03 µM [1]: 40%
Cc1cnc2c(c1)c1c(n2CC(O)c2ccc(C#N)nc2)CCN(C)C1 (single isomer, unassigned) [II-114b, 5-[2-(3,6-dimethyl-5,6,7,8-tetrahydro-1,6,9-triaza-fluoren-9-yl)-1-hydroxy-ethyl]-pyridine-2-carbonitrile]	–	−5%	7%	Percentage inhibition of ligand binding, Adrenergic α2B (0.03 μM) [1]: 40%
CC(O)(Cn1c2c(c3cc(Cl)ccc31)CN(C1CCC1)CC2)c1cccnc1 (single isomer, unassigned) [II-118b]	−3%	5%	11%	–
Cc1ccc2c(c1)c1c(n2CC(O)c2ccc(F)cc2)CCN2CCCC12 (single isomer, unassigned) [II-120a, 1-(4-fluoro-phenyl)-2-(9-methyl-1,2,3,4,5,10c-hexahydro-3a,6-diaza-cyclopenta[c]fluoren-6-yl)-ethanol]	–	65%	–	inhibition at 0.03 µM [1]: 101%; inhibition at 0.1 µM [3, 6]: 99%
Cc1ccc2c(c1)c1c(n2CC(O)c2ccc(F)cc2)CCN2CCCC12 (single isomer, unassigned) [II-120b, 1-(4-fluoro-phenyl)-2-(9-methyl-1,2,3,4,5,10c-hexahydro-3a,6-diaza-cyclopenta[c]fluoren-6-yl)-ethanol]	98%	98%	100%	–
Cc1ccc2c(c1)c1c(n2CC(C)(O)c2ccc(F)cc2)CCN2CCCC12 (single isomer, unassigned) [II-121a, 2-(4-fluoro-phenyl)-1-(9-methyl-1,2,3,4,5,10c-hexahydro-3a,6-diaza-cyclopenta[c]fluoren-6-yl)-propan-2-ol]	104%	92%	98%	inhibition at 0.03 µM [1]: 103%; Ki [2]: 4.52 nM; inhibition at 0.03 µM ([2]; read-out: Percentage inhibition of ligand binding, Adrenergic α2A (0.03 μM), compound at 0.03 μM, [3H]MK-912, repeat datapoints each shown): 65%; inhibition at 0.1 µM ([2]; read-out: Percentage inhibition of ligand binding, Adrenergic α2A (0.1 μM), compound at 0.1 μM, [3H]MK-912, repeat datapoints each shown): 91%; inhibition at 0.03 µM ([3]; read-out: Percentage inhibition of ligand binding, Adrenergic α1B (0.03 μM), compound at 0.03 μM, [3H]Prazosin, repeat datapoints each shown): 90%; inhibition at 0.1 µM [3, 6]: 97%
Cc1ccc2c(c1)c1c(n2CC(C)(O)c2ccc(F)cc2)CCN2CCCC12 (single isomer, unassigned) [II-121b, 2-(4-fluoro-phenyl)-1-(9-methyl-1,2,3,4,5,10c-hexahydro-3a,6-diaza-cyclopenta[c]fluoren-6-yl)-propan-2-ol]	100% and 103%	80% and 85%	93% and 96%	Ki ([1]; read-out: Ki α2B): 0.22 nM; Ki [2]: 9.18 nM; Percentage inhibition of ligand binding, Adrenergic α2A (0.03 μM) ([2]; compound at 0.03 μM, [3H]MK-912, repeat datapoints each shown, 0.03 µM): 54%; Percentage inhibition of ligand binding, Adrenergic α1B (0.03 μM) ([3]; compound at 0.03 μM, [3H]Prazosin, repeat datapoints each shown, 0.03 µM): 77%
Cc1cc2c3c(n(CC(C)(O)c4cccnc4)c2cc1Cl)CCN(C)C3 (single isomer, unassigned) [II-123a, 1-(7-chloro-2,8-dimethyl-3,4-dihydro-1H-pyrido[4,3-b]indol-5(2H)-yl)-2-(pyridin-3-yl)propan-2-ol]	62%	16%	–	inhibition at 0.1 µM [3, 6]: 41%

From US8791132B2, “Compounds and methods for treatment of hypertension” (Medivation Technologies, Inc., priority 2011, dated 2014)
